Assay [1] deals with T1, interaction of the PAS B domains of HIF-2α and HIF-1β (Homo sapiens, UniProt Q99814).
T1 construct: His6Gb1-TEV-GEFKGL-HIF2α (240-350aa)-G
The assay is described as follows: Alphascreen protein protein interaction assay. It is filed as biochemical. How it is done: Alphascreen Protein Protein Interaction Assay:
For the assessment of functional disruption of the interaction of the PAS B domains of HIF-2α and HIF-1β an AlphaScreen assay was set-up. The assay was performed in 384 well light gray Perkin Elmer microtiter plates in a total volume of 7 μl. […] The detection of the protein protein interaction was performed by adding AlphaLISA® Anti-FLAG Acceptor beads (fc 20 μg/ml) and AlphaScreen® Nickel Chelate Donor beads (fc 9 μg/ml) (both Perkin Elmer) and the reaction was incubated for 240 min at 23° C. in the dark. If donor and acceptor beads get in close proximity to each other caused by interaction of HIF2alpha PAS B with HIF-1ß PAS B domain it results in a luminescence signal at 615 nm after excitation at 680 nm. The PPI disruption activity of a compound was calculated directly from the loss in Alphascreen signal. The AlphaScreen signal was measured with an Envision multimode reader (Perkin Elmer LAS Germany GmbH). The control value used was the inhibitor-free reaction. The pharmacological zero value used was determined in the absence of HIF-11. The inhibitory values (IC50) were calculated using Assay analyser from GeneData.
In general terms: Alpha assays give light when donor and acceptor beads are brought close together.

The target of a further assay is T2, HIF2a (240-350)-G (Homo sapiens, UniProt Q99814).
T2 construct: The protein, HIF2a (240-350)-G, was prepared by recombinant overexpression; made in house
The assay is described as follows: ITC. It is filed as binding. How it is done:
ITC measurements were performed with a VP-ITC microcalorimeter from MicroCal/Malvern (UK). For all titration experiments the protein and the respective compounds were formulated in 30 mM HEPES buffer pH 7.5, 150 mM NaCl and 5 mM ß-mercaptoethanol. The protein, HIF2a (240-350)-G, was prepared by recombinant overexpression and multistep chromatography purification. Compounds were used from concentrated DMSO stock solutions. The final protein concentration in the injection syringe was 100 μM. Ligand stock solutions of 10 mM in DMSO were diluted to 10 μM concentrations with buffer and loaded into the sample cell. All buffers were adjusted to a final concentration of 1% (v/v) DMSO. Both, the titrate and titrant solutions were degassed prior to loading the calorimeter cell and injection syringe. […] The integrated heat data were fit with a one-site binding model to determine the apparent values for affinity, enthalpy and stoichiometry of binding.

In assay [2] the test system is HIF2α-HIF1β activity in 786-O HRE-luc2P cells. The assay is described as follows: Cellular mechanistic assay: 786-O HRE-luc2P reporter assay. It is filed as cell-based. As to conditions: Homo sapiens, 786-0, 48 h, read-out: HRE-luc2P reporter assay IC50. How it is done: This reporter assay was designed to monitor binding of the HIF2α-HIF1β complex to specific DNA fragment called hypoxia response element (HRE) in physiologically relevant cell line. […] HRE is present in promoters of various genes regulated by hypoxia inducible factors. […] As a result, this reporter assay allows monitoring of HIF2α-HIF1β activity by determining the activity of produced luciferase. Cell culture is performed in RPMI media supplemented with 10% FBS, Sodium Pyruvate, Penicillin/Streptomycin, Glutamine, 200 μg/ml Hygromycin Gold.
The assay was performed in 384 well white, opaque microtiterplate with transparent bottom (Greiner Bio-one, Frickenhausen). […] 50 μl of cell suspension (2000 cells) per well were dispensed in microtiter plates and incubated over night at 37° C. in a 5% CO2 incubator. Compounds were added with Labcyte Echo dispenser (fc 0.2% DMSO, 9 concentrations dilution raw starting at 10 μM). Plates were incubated for 48 h at 37° C. in a 5% CO2 incubator. After this 45 μl of pre-warmed ONE-Glo™ EX Reagent were added per well. Plates were placed on an orbital shaker at 1200 rpm for 3 minutes. Plates were sealed and luminescence was measured a Tecan Spark 20M microplate reader (end-point measurement with 0.1 second reading time). Values were normalized to DMSO ctrl and wells without cells (only medium ctrl). Decrease in luminescence directly correlates with inhibition of HIF2α activity. IC50 values and % effect values were calculated by GraphPad Prism.
(In general: Reporter assays use an easily measured gene product as a stand-in for the process of interest.)

Consider 23 compounds from patent US11613526B2, “Thiophene derivatives” (priority 2018, dated 2023).

What is called pIC50 is the negative decadic logarithm of the IC50, by convention in mol/L. Broadly, the pKd is −log10 of the Kd, conventionally taken in molar units.

pIC50, pKd: −log10 of the molar value.

T2 sequence (Q99814 240-350): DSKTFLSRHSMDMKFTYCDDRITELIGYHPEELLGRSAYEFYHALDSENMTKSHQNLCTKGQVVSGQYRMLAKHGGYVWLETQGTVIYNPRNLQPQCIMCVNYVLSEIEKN
T1 sequence (Q99814 240-350): as above

Turning to `CS(=O)(=O)c1sc(-c2cccc(F)c2)c2c1[C@H](O)C(F)(F)C2` [Example 28a, (4S)-5,5-difluoro-1-(3-fluorophenyl)-3-methanesulfonyl-4H,6H-cyclopenta[c]thiophen-4-ol], the pIC50 in assay [1] was less than 6.00. The compound also showed a pKd on HIF2a (240-350)-G of less than 6.00.

`CS(=O)(=O)c1sc(-c2cnc(Cl)c(F)c2)c2c1[C@H](O)C(F)(F)CC2` [Example 61a, (4S)-1-(6-chloro-5-fluoropyridin-3-yl)-5,5-difluoro-3-methanesulfonyl-4,5,6,7-tetrahydro-2-benzothiophen-4-ol]: the figures for the pIC50 in assay [1] and in assay [2] were 6.00 to 7.30 and less than 6.00, respectively.

In assay [1], `CS(=O)(=O)c1sc(-c2ccccc2)c2c1[C@H](O)C(F)(F)C2` [Example 25a, (4S)-5,5-difluoro-3-methanesulfonyl-1-phenyl-4H,6H-cyclopenta[c]thiophen-4-ol] showed a negative-log IC50 (pIC50) of less than 6.00. At HIF2a (240-350)-G, this compound showed a pKd of less than 6.00. On to `CS(=O)(=O)c1sc(-c2cncc(C(F)(F)F)c2)c2c1[C@H](O)C(F)(F)CC2` [Example 62a, (4S)-5,5-difluoro-3-methanesulfonyl-1-[5-(trifluoromethyl)pyridin-3-yl]-4,5,6,7-tetrahydro-2-benzothiophen-4-ol], for which the values for the pIC50 in assay [1] and in assay [2] were 6.00 to 7.30 and less than 6.00, respectively. For `Cc1cncc(-c2sc(S(C)(=O)=O)c3c2CCC(F)(F)[C@H]3O)c1` [Example 57a, (4S)-5,5-difluoro-3-methanesulfonyl-1-(5-methylpyridin-3-yl)-4,5,6,7-tetrahydro-2-benzothiophen-4-ol], in assay [1], the negative logarithm of the IC50 (pIC50) is less than 6.00. On the same count and under the same terms, the same measure for `CS(=O)(=O)c1sc(-c2cncc(F)c2)c2c1[C@H](O)C(F)(F)CC2` [Example 58a, (4S)-5,5-difluoro-1-(5-fluoropyridin-3-yl)-3-methanesulfonyl-4,5,6,7-tetrahydro-2-benzothiophen-4-ol]: less than 6.00. For the compound `CS(=O)(=O)c1sc(-c2ccccc2F)c2c1[C@H](O)C(F)(F)C2` [Example 27a, (4S)-5,5-difluoro-1-(2-fluorophenyl)-3-methanesulfonyl-4H,6H-cyclopenta[c]thiophen-4-ol], the negative-log IC50 (pIC50) in assay [1] was less than 6.00. Also, the pKd on HIF2a (240-350)-G is less than 6.00.

In assay [1], `COc1ncc(-c2sc(S(C)(=O)=O)c3c2CCC(F)(F)[C@H]3O)cc1Cl` [Example 65a, (4S)-1-(5-chloro-6-methoxypyridin-3-yl)-5,5-difluoro-3-methanesulfonyl-4,5,6,7-tetrahydro-2-benzothiophen-4-ol] had a pIC50 of less than 6.00.

The compound `Cc1nn(C)cc1-c1sc(S(C)(=O)=O)c2c1CCC(F)(F)[C@H]2O` [Example 39a, (4S)-1-(1,3-dimethyl-1H-pyrazol-4-yI)-5,5-difluoro-3-methanesulfonyl-4,5,6,7-tetrahydro-2-benzothiophen-4-ol] showed a pIC50 in assay [1] of less than 6.00.

As to `Cc1cc(-c2sc(S(C)(=O)=O)c3c2CCC(F)(F)[C@H]3O)n(C)n1` [Example 50a, (4S)-1-(1,3-dimethyl-1H-pyrazol-5-yl)-5,5-difluoro-3-methanesulfonyl-4,5,6,7-tetrahydro-2-benzothiophen-4-ol], in assay [1], the negative logarithm of the IC50 (pIC50) was less than 6.00.

Regarding `CS(=O)(=O)c1sc(-c2cccc(F)c2)c2c1[C@H](O)C(F)(F)CC2` [Example 37a, (4S)-5,5-difluoro-1-(3-fluorophenyl)-3-methanesulfonyl-6,7-dihydro-4H-2-benzothiophen-4-ol], the pIC50 in assay [1] and in assay [2] was less than 6.00 each time. The pKd at HIF2a (240-350)-G was less than 6.00. In the case of `CS(=O)(=O)c1sc(-c2ccccc2)c2c1[C@H](O)CCC2` [Example 36a, (4R)-3-methanesulfonyl-1-phenyl-4,5,6,7-tetrahydro-2-benzothiophen-4-ol], the pIC50 in assay [1] and in assay [2] was less than 6.00 in each case.

As for `Cn1nc(C#N)cc1-c1sc(S(C)(=O)=O)c2c1CCC(F)(F)[C@H]2O` [Example 51a, 5-[(4S)-5,5-difluoro-4-hydroxy-3-methanesulfonyl-4,5,6,7-tetrahydro-2-benzothiophen-1-yl]-1-methyl-1H-pyrazole-3-carbonitrile], the pIC50 in assay [1] was less than 6.00. In the case of `CS(=O)(=O)c1sc(-c2cncc(Cl)c2)c2c1[C@H](O)C(F)(F)CC2` [Example 56a, (4S)-1-(5-chloropyridin-3-yl)-5,5-difluoro-3-methanesulfonyl-4,5,6,7-tetrahydro-2-benzothiophen-4-ol], the negative logarithm of the IC50 (pIC50) was 6.00 to 7.30 in assay [1] and less than 6.00 in assay [2]. On to `Cn1nccc1-c1sc(S(C)(=O)=O)c2c1CC(F)(F)[C@H]2O` [Example 47a, (4S)-5,5-difluoro-3-methanesulfonyl-1-(1-methyl-1H-pyrazol-5-yl)-4H,5H,6H-cyclopenta[c]thiophen-4-ol], for which the pIC50 in assay [1] and in assay [2] was less than 6.00 throughout. Take `Cn1nc(C(F)(F)F)cc1-c1sc(S(C)(=O)=O)c2c1CC(F)(F)[C@H]2O` [Example 48a, (4S)-5,5-difluoro-3-methanesulfonyl-1-[1-methyl-3-(trifluoromethyl)-1H-pyrazol-5-yl]-4H,5H,6H-cyclopenta[c]thiophen-4-ol]: the pIC50 in assay [1] and in assay [2] was less than 6.00 each time. As to `CS(=O)(=O)c1sc(-c2cc(F)nc(Cl)c2)c2c1[C@H](O)C(F)(F)CC2` [Example 63a, (4S)-1-(2-chloro-6-fluoropyridin-4-yl)-5,5-difluoro-3-methanesulfonyl-4,5,6,7-tetrahydro-2-benzothiophen-4-ol], the pIC50 is greater than 7.30 in assay [1] and less than 6.00 in assay [2]. The compound further showed a pKd on HIF2a (240-350)-G of 6.00 to 7.30. As to `Cc1cc(-c2sc(S(C)(=O)=O)c3c2CC(F)(F)[C@H]3O)n(C)n1` [Example 49a, (4S)-1-(1,3-dimethyl-1H-pyrazol-5-yl)-5,5-difluoro-3-methanesulfonyl-4H,5H,6H-cyclopenta[c]thiophen-4-ol], in assay [1], the pIC50 was less than 6.00.

The compound `Cn1cc(-c2sc(S(C)(=O)=O)c3c2CCC(F)(F)[C@H]3O)cn1` [Example 40a, (4S)-5,5-difluoro-3-methanesulfonyl-1-(1-methyl-1H-pyrazol-4-yl)-4,5,6,7-tetrahydro-2-benzothiophen-4-ol] gave a pIC50 in assay [1] of less than 6.00. `Cn1cc(-c2sc(S(C)(=O)=O)c3c2CC(F)(F)[C@H]3O)cn1` [Example 35a, (4S)-5,5-difluoro-3-methanesulfonyl-1-(1-methyl-1H-pyrazol-4-yl)-4H,5H,6H-cyclopenta[c]thiophen-4-ol] had a pIC50 in assay [1] of less than 6.00. As to `Cn1nc(C(F)(F)F)cc1-c1sc(S(C)(=O)=O)c2c1CCC(F)(F)[C@H]2O` [Example 46a, (4S)-5,5-difluoro-3-methanesulfonyl-1-[1-methyl-3-(trifluoromethyl)-1H-pyrazol-5-yl]-4,5,6,7-tetrahydro-2-benzothiophen-4-ol], the negative logarithm of the IC50 (pIC50) in assay [1] and in assay [2] was less than 6.00 throughout. Consider `Cn1nc(-c2sc(S(C)(=O)=O)c3c2CCC(F)(F)[C@H]3O)cc1C#N` [Example 54a, 3-[(4S)-5,5-difluoro-4-hydroxy-3-methanesulfonyl-4,5,6,7-tetrahydro-2-benzothiophen-1-yl]-1-methyl-1H-pyrazole-5-carbonitrile], for which the negative logarithm of the IC50 (pIC50) in assay [1] and in assay [2] was less than 6.00 each time. In assay [1], `CS(=O)(=O)c1sc(-c2cncc(C#N)c2)c2c1[C@H](O)C(F)(F)CC2` [Example 59a, 5-[(4S)-5,5-difluoro-4-hydroxy-3-methanesulfonyl-4,5,6,7-tetrahydro-2-benzothiophen-1-yl]pyridine-3-carbonitrile] showed a pIC50 of less than 6.00.
